Entries after “also recorded” stand apart in the source; their conditions may differ.
What was measured:
[1] = tested on: larval zebrafish; test: Larval photomotor behavior test (light/dark locomotor test); type: in vivo; settings: for Behavior score (total change from control): sum of absolute [1 − (AUC value/DMSO)] over all concentrations, epochs and 3, 4, 5 dpf; for distance traveled relative to vehicle control: on average across larval ages
Method: At 4 hpf, embryos were treated with 50 µl of 41 mg/ml protease from Streptomyces griseus (P5147, Sigma-Aldrich, St. Louis, MO, United States) in 25 ml of FW for a maximum of 6 min to remove the chorion ([Truong et al., 2011]). At 5 hpf, embryos were placed in individual wells of 96-well plates filled with 100 µl of EM. At 6 hpf, embryos were exposed to a 2× concentration of the selected PCB congeners or controls that were diluted in 100 μl EM to produce a 1× concentration in a total of 200 µl solution. […] After exposure, plates were covered with Parafilm M (Bemis NA, Neenah, WI, United States) to reduce evaporation and placed in an incubator at 28.5°C with 14 h light (∼300 lux)/10 h dark cycles. Final DMSO concentrations were 0.2% (vol/vol) for all exposures. Fish were statically exposed until 5 dpf.
Larval locomotor tests were performed at 3, 4, and 5 dpf. Vehicle and PCB-exposed larvae in 96-well plates were placed in a DanioVision behavior system (Noldus Information Technology, Leesburg, VA, United States) and subjected to a 35 min light/dark locomotor test. System and plate temperature were maintained at 28.5 ± 0.5°C using a temperature control unit from Noldus. The testing paradigm consisted of a 10 min light period (∼1,900 lux) to allow for acclimation (5 min) and to record baseline swimming (5 min). This was followed by a 5 min dark period (∼0 lux) to stimulate increased swimming behavior and a 5 min light period (∼1,900 lux) to stimulate freezing behavior. The last 15 min consisted of a dark period (∼0 lux) to observe increased swimming behavior and acclimation to the dark conditions.
The distance traveled binned per minute by each larva during the 35-min observation test period was recorded via continuous tracing using a DanioVision system camera with an infrared filter to allow recording in both light and dark conditions. Movement was tracked using EthoVisionXT software (Noldus Information Technology) and exported to Excel and Prism 6.0 (GraphPad Software) for analysis and visualization. Dead and/or malformed larvae (as noted by observation under dissecting scope) were excluded from the behavior analysis.
The trapezoidal rule was used to compute the area under the curve (AUC) for each fish per day per lighting condition. The first 5 min of the 35-min observation period was removed to account for initial acclimation. Therefore, data were analyzed for the following time epochs: Light 1 (L1) = 6–10 min, Dark 1 (D1) = 11–15 min, Light 2 (L2) = 16–20 min, and Dark 2 (D2) = 21–35 min. Mixed effects regression models, including zebrafish-specific random effects, were used to assess differences between groups. DMSO groups from each spawn date (≥3 independent spawns) and plate were combined in the analysis. Separate models were fit for each congener. New variables were defined to capture differences in the AUC between Light 1 and Dark 1, Dark 1 and Light 2, and Light 2 and Dark 2, to measure change in distance traveled when transitioning from light to dark or dark to light. Contrasts were specified to compare these transitions and the AUC during each of the lighting conditions between the exposed groups and the DMSO control group. […] Due to some zeroes in the AUC, all values were shifted by 0.1 prior to taking the natural logarithm. Concentration (0.1, 0.3, 1, 3, 10 µM and DMSO), day (3, 4, 5 dpf), and the transition variables were all of interest in the models, including their interactions. Akaike information criterion was used for model selection and Wald tests for comparing groups. All analyses were conducted using SAS version 9.4.
The neurotoxic potential of the congeners tested in this study were ranked based on the three endpoints measured in this study: RYR binding, behavior, and body burden. Congeners were ranked relative to each other for each individual endpoint from 1 (highest) to 6 (lowest), and then the three scores for each congener averaged to obtain an overall relative ranking for each congener. […]

[2] = tested on: RYR paralogs found in zebrafish skeletal muscle; test: [3H]ryanodine ligand binding assay, adult zebrafish tail muscle microsomes; settings: for Max. response SEM (%): maximum [3H]Ry binding response compared to DMSO control, mean ± SEM; for EC50: relative EC50, concentration causing half-maximum response, PCB 0.1–50 μM; for RYR activity (in words): zebrafish muscle; for EC2X: concentration causing two-fold induction in ligand binding vs DMSO control
Method: Sensitization of the zebrafish RYR by ortho-PCBs was measured using [^3H]ryanodine ([^3H]Ry) ligand binding assays as previously described ([Fritsch and Pessah, 2013]). Briefly, crude microsomal protein preparations were created from the tail (post dorsal fin) muscle (primarily white skeletal muscle) of six adult zebrafish (∼1 year old) that was homogenized in a buffer containing 320 mM sucrose, 5 mM HEPES, 1 mM PMSF, 10 mM NaF, 2 mM β-Glycerol, 5 mM Na4P2O7, 0.5 mM Na3VO4 and 2 μg/L leupeptin (pH 7.2). The homogenate was centrifuged at 5,000 × g (4°C) for 15 min. The pellet was re-homogenized in 5 ml homogenization buffer and centrifuged at 5,000 × g. Supernatants were combined for ultracentrifugation at 100,000 g (4°C for 1 h). The resultant pellet was re-suspended in a buffer of 320 mM sucrose and 5 mM HEPES (Sigma-Aldrich, St. Louis, MO, United States) at pH 7.2. Protein concentrations were determined in triplicate using a BCA Assay (Fisher Scientific, Waltham, MA, United States). [^3H]Ry ligand binding assays were conducted with 40 μg/ml of the crude protein homogenate in the presence of DMSO (0.5%) or 0.1–50 μM of individual PCB congeners in 0.5% DMSO. Tests were run using 5 nM [^3H]Ry (Perkin Elmer Waltham, MA, United States), 250 mM KCl, 20 mM HEPES, 15 mM NaCl, and 50 μM CaCl2 (pH 7.1) and incubated for 16 h at 25°C. Non-specific binding was determined with the addition of 10 µM ryanodine (Tocris Bioscience, Bristol, United Kingdom) and 200 μM EGTA (Sigma-Aldrich, St. Louis, MO, United States). Assays were terminated by rapid filtration through Whatman GF/B filter paper (Brandel, Gaithersburg, MD, United States) and washed with ice-cold buffer containing 140 mM KCl, 10 mM HEPES, and 0.1 mM CaCl2, pH 7.4. Bound radioligand was measured by liquid scintillation counting (Beckman Coulter, Indianapolis, IN, United States). PCB-induced [^3H]Ry binding was assessed in two different protein preparations, and each assay was run in triplicate. Individual PCB concentration-response curves were determined using non-linear regression (GraphPad Prism 6.0, GraphPad Software Inc., San Diego, CA, United States).

[3] = tested on: RYR; design: method as in Pessah et al., 2006; Holland et al., 2017a; settings: ref Pessah et al., 2006; Holland et al., 2017a; cited from earlier work

SMILES | distance moved relative to vehicle control ([1]; 0.3 µM, 4 dpf, L1) | distance moved relative to vehicle control ([1]; 3 µM, 3 dpf, D2) | distance moved relative to vehicle control ([1]; 10 µM, 3 dpf, D2) | Behavior score (total change from control) [1] | concentration failing to cause a 2-fold (EC2X) increase in channel activity [2] | Max. response SEM (%) [2] [%] | EC50 [2] [µM] | RYR activity (in words) [2] | in vitro potency at the RYR (in words) [3] | distance moved relative to vehicle control ([1]; 3 µM, 3 dpf, L2) | L1-D1 transition relative to vehicle control ([1]; 3 µM, 5 dpf) | distance moved relative to vehicle control ([1]; 3 µM, 5 dpf, L1) | distance moved relative to vehicle control ([1]; 10 µM, 3 dpf, D1) | distance moved relative to vehicle control ([1]; 10 µM, 3 dpf, L1) | distance moved relative to vehicle control ([1]; 10 µM, 3 dpf, L2) | L1-D1 transition relative to vehicle control ([1]; 10 µM, 4 dpf) | L1-D1 transition relative to vehicle control ([1]; 10 µM, 5 dpf) | distance moved relative to vehicle control ([1]; 10 µM, 5 dpf, L1) | EC2X [2] | distance moved relative to vehicle control ([1]; 10 µM, 5 dpf, D2) | other results
Clc1ccc(-c2ccc(Cl)cc2Cl)cc1 [PCB 28] | traveling less | significantly less | significantly less | 10.83 | above 10 µM | 170.60 ± 13.28 | 0.67 | limited | negligible | – | – | – | – | – | – | – | – | – | – | – | increase of L1-D1 transition relative to vehicle controls ([1]; 0.1 µM, 4 dpf): 0.9 mm; distance moved relative to vehicle control ([1]; 0.1 µM, 4 dpf, D1): significantly more; increase of L1-D1 transition relative to vehicle controls ([1]; 0.3 µM, 4 dpf): 1.3 mm; distance moved relative to vehicle control ([1]; 0.3 µM, 4 dpf, D1): significantly more; increase of L1-D1 transition relative to vehicle controls ([1]; 1 µM, 4 dpf): 0.87 mm; distance moved relative to vehicle control ([1]; 1 µM, 4 dpf, D1): significantly more; increase of L1-D1 transition relative to vehicle controls ([1]; 3 µM, 4 dpf): 0.9 mm; distance moved relative to vehicle control ([1]; 3 µM, 4 dpf, D1): significantly more; increase of L1-D1 transition relative to vehicle controls ([1]; 10 µM, 4 dpf): 0.8 mm; distance moved relative to vehicle control ([1]; 10 µM, 5 dpf, L2): moved less
Clc1ccc(-c2ccc(Cl)c(Cl)c2)c(Cl)c1 [PCB 66] | – | – | – | 14.39 | above 10 µM | – | > 50 | negligible; also recorded: limited | negligible | – | – | – | – | – | – | – | – | – | – | – | distance traveled relative to vehicle control ([1]; 0.11 µM, L1): significantly decreased; distance traveled relative to vehicle control ([1]; 1 µM, L1): significantly decreased
Clc1cccc(-c2c(Cl)ccc(Cl)c2Cl)c1Cl [PCB 84] | significantly less movement | – | moved more | 28.93 | – | 437.50 ± 35.72 | 8.97 | – | potent | moved more | increased less | moved more | moved more | Increased | Increased | moved less | increased less | moved more | 6.97 | – | distance moved relative to vehicle control ([1]; 0.1 µM, 3 dpf, D1): moved less; distance moved relative to vehicle control ([1]; 0.1 µM, 3 dpf, D2): moved less; distance moved relative to vehicle control ([1]; 0.1 µM, 3 dpf, L2): moved less; L1-D1 transition relative to vehicle control ([1]; 0.3 µM, 4 dpf): moved more; distance moved relative to vehicle control ([1]; 0.3 µM, 5 dpf, L1): moved more; L1-D1 transition relative to vehicle control ([1]; 1 µM, 4 dpf): moved more; distance moved relative to vehicle control ([1]; 1 µM, 4 dpf, L1): significantly less movement; maximal effect compared to the DMSO control ([2]; concentrations above 3 µM): 400%; change in RYR activity at low concentrations ([2]; concentrations below 3 µM, biphasic effect): significant reduction
Clc1ccc(Cl)c(-c2c(Cl)ccc(Cl)c2Cl)c1 [PCB 95, 2,2',3,5',6-pentachlorobiphenyl] | – | moved more | significantly more | 81.46 | – | 734.70 ± 49.87 | 3.79 | high | potent | moved more | significantly less | more | significantly more | significantly more | significantly more | decreased | decreased | more | 1.5 | significantly less | L1-D1 transition relative to vehicle control ([1]; 0.1 µM, 4 dpf): moved more; distance moved relative to vehicle control ([1]; 10 µM, 4 dpf, D1): significantly less; distance moved relative to vehicle control ([1]; 10 µM, 4 dpf, L1): significantly more; distance moved relative to vehicle control ([1]; 10 µM, 4 dpf, L2): significantly more; distance moved relative to vehicle control ([1]; 10 µM, 5 dpf, D1): significantly less; increase in [3H]Ry-binding ([2]; measure of channel activation): ~800%
Clc1cc(Cl)c(-c2ccc(Cl)c(Cl)c2Cl)cc1Cl [PCB 138] | – | moved more | moved more | 29.32 | – | 388.20 ± 74.93 | 9.6 | moderate | moderate | – | – | – | moved more | – | – | – | – | – | 4.18 | moved less | increase of L1-D1 transition compared to the control group ([1]; 0.3 µM, 4 dpf): 0.821; distance moved relative to vehicle control ([1]; 1 µM, 3 dpf, D1): moved more; increase of L1-D1 transition compared to the control group ([1]; 1 µM, 4 dpf): 0.68; distance moved relative to vehicle control ([1]; 3 µM, 3 dpf, D1): moved more; decrease of L1-D1 transition compared to controls ([1]; 3 µM, 5 dpf): 0.7; decrease of L1-D1 transition compared to the control group ([1]; 10 µM, 4 dpf, not quite statistically significant (p = 0.06)): 0.6
